Entries after “also recorded” stand apart in the source; their conditions may differ. Like-named read-outs stand apart in the source and are kept apart here.
Columns and labels:
[1] = tested on: Pseudomonas aeruginosa type 1; type: cell-based
Experimental: Bactericidal activity can be evaluated against a variety of bacteria such as Pseudomonas spp including aeruginosa and P. cepacia, E. coli B, and Staphylococcus aureus. The preferred organism is P. aeruginosa. Bactericidal activity is determined by identifying the effective dose for killing as the molar concentration of the peptide which results in at least a 60% killing of the bacteria, as determined by standard methods. Preferably, the peptide has an effective dose at a concentration of about 1×10^-4 M to about 1×10^-10 M, and more preferably 1×10^-7 M to 1×10^-9M . […] The effective dose for bactericidal activity of B/PI is seen at about […] . Bactericidal activity can also be determined by calculating a lethal dose 50 (LD50) using standard methods. The LD50 is that amount of peptide or protein that kills 50% of the bacteria when measured using standard dose response methods. A bactericidal peptide preferably has an LD50 of about 10^-4 M to about 10^-9 M , more preferably about 10^-7 to 10^-9 M .
(§1) The synthetically produced peptides were assayed for bactericidal activity against Pseudomonas aeruginosa, type 1, P. cepacia ATCC 25608, E. coli B, and Staphylococcus aureus 502A by standard methods.
(§2) Pseudomonas aeruginosa type 1 is a clinical isolate maintained in the laboratory since 1972. The isolate remains a smooth strain and was serotyped by the scheme of Homma. Homma, Jpn. J. Exp. Med., 46:329 (1976). A rough strain E. coli B and S. aureus 502A were obtained from Paul Quie, University of Minnesota. The characteristics of the S. aureus strain have been described in Shinefield et al., Amer. J. Dis. Chil., 105:646 (1963). Pseudomonas cepacia ATCC 25608 was purchased from the American Type Culture Collection in 1980. S. aureus and E. coli were maintained on nutrient agar plates and the Pseudomonas strains were maintained on blood agar plates.
(§3) Pyrogen-free solutions were used throughout this assay and all methods which follow. Log phase bacteria were prepared from a culture in brain heart infusion broth as previously described except that bacteria were washed and resuspended in saline with adjustment to an optical density at 650 nm which would yield 3×10^8 CFU/ml. Bacteria were then diluted 1:10 in 0.08M citrate phosphate buffer, pH 5.6 or pH 7.0, for use in the assay. S. aureus rapidly lost viability in the pH 5.6 buffer and was studied only at pH 7.0. Bactericidal activity was determined by dose response and where an LD50 is indicated, it was determined by linear regression.

P. cepacia ATCC 25608 = test: Bactericidal assay, P. cepacia; type: cell-based, Pseudomonas cepacia; details: for % Killing of 5 × 10^6 Bacteria: P. cepacia
Experimental: as §1, §2, §3

E. coli B = test: Bactericidal assay, E. coli B; type: cell-based
Experimental: as §1, §2, §3

[2] = tested on: Staphylococcus aureus 502A; type: cell-based
Experimental: as §1, §2, §3

Human lung fibroblasts = test: Toxicity for human lung fibroblasts, trypan blue exclusion; type: cell-based; details: 1.5 × 10^-5 M, 30 minutes
Experimental: The synthetic peptides were assayed for toxicity to cultured eukaryotic cells. Human lung fibroblasts were grown in monolayers in Dulbecco's Modified Eagles' Medium (DMEM) with 10% fetal calf serum (FCS) and originated as primary cultures of lung mesenchymal cells. The cells were trypsinized, washed with either DMEM plus FCS or phosphate-buffered saline (PBS), pH 7.4, and incubated with peptide at a final cell concentration of 1×10^7 /ml. Nine volumes of cell suspension were diluted with one volume of 0.4% trypan blue and the cells were counted with a hemocytometer, while also determining the fraction of cells which were increased in permeability to dye. There was no significant loss of cell number due to exposure of the fibroblasts to peptide.
^a Viability was determined by trypan blue exclusion following
incubation of cells with peptide for 30 minutes in DMEM plus 10% FCS or i

E. coli 055: B5 LPS = test: Limulus amoebocyte lysate assay, neutralization of endotoxin; type: biochemical; details: for peptide concentration which neutralized endotoxin (100% inhibition of LPS-induced gelation): 0.04 endotoxin units of E. coli 055: B5 LPS; for Effective Dose (μg/0.2 ml) / Effective Dose M (× 10^-4): Table 7, dose required to inhibit clotting of LAL by 100%, 0.04 endotoxin units of E. coli LPS
Description: The peptide selected can also have endotoxin neutralizing activity. […] Endotoxin neutralizing activity can also be measured by calculating an inhibitory dose 50 […] using standard does response methods. An inhibitory dose 50 is that amount of peptide that can inhibit 50% of the activity of endotoxin. Endotoxin activity can also be measured by determining the amount of release of tumor necrosis factor alpha (TNFα) from a macrophage cell line or by evaluating the symptoms of shock in animals. Peptides preferably neutralized endotoxin at a molar concentration of about 1×10^-4 M to about 10^-8 M , more preferably about 10^-5 M to about 10^-6 M .
The ability of synthetic peptides to neutralize endotoxin was detected with the E-TOXATE kit manufactured by Sigma Chemicals, St. Louis, Mo. […] Peptide was incubated with LPS at room temperature for 10 minutes in 100 μl of a 1:2 dilution of pyrogen-free saline, pH 6.4. The reaction was started by addition of 100 μl of amoebocyte lysate and the final volume was 200 μl.
^a The dose of peptide required to inhibit clotting of LAL by 100%.
Each tube contained 0.04 endotoxin units of E. coli LPS.

[3] = Storage stability of bactericidal activity of B/PI in elution buffer; type: physicochemical; details: 0.05M glycine buffer, pH 2.5, with 0.5M NaCl; 4° C. and -70° C.; prolonged periods
Experimental: Recombinant products can be purified from infected cells by immunoaffinity chromatography with the appropriate immobilized rabbit anti-peptide antibody or a mouse monoclonal antibody to B/PI. B/PI was reproducibly purified by application of partially purified samples of 2 mg protein to a 1.5×180 cm Toyopearl HW55S (Toso Haas) column or 200 mg protein to a TSX2000 HPLC (Beckman) column. The elution buffer for both columns is 0.05M glycine buffer, pH 2.5, with 0.5M NaCl. Recovery of B/PI protein was excellent and 100% of bactericidal activity is retained. The bactericidal activity of B/PI in this buffer was stable at 4° C. and at -70° C. for prolonged periods. The columns resolve protein standards over the range of 2-70 kD and can be used for all steps separation of fragments of B/PI by molecular weight. Reverse phase HPLC can be used if necessary.

For `CC(C)C[C@H](NC(=O)[C@H](Cc1ccccc1)NC(=O)[C@H](CCCNC(=N)N)NC(=O)[C@H](CCCCN)NC(=O)[C@H](CCC(N)=O)NC(=O)[C@H](C)NC(=O)[C@H](CCCCN)NC(=O)[C@H](Cc1c[nH]c2ccccc12)NC(=O)[C@H](CCCCN)NC(=O)[C@@H](N)CS)C(=O)N[C@@H](CCCCN)C(=O)O` [Peptide 2, ckwkaqkrflk], the “% Killing of 5 × 10^6 Bacteria” value ([1]; type 1, 1.5e-6 M, pH 5.6) was 83%, the “% Killing of 5 × 10^6 Bacteria” value (P. cepacia ATCC 25608; pH 5.6, 1.5 × 10^-5 M) was 80% and the “% Killing of 5 × 10^6 Bacteria” value (P. cepacia ATCC 25608; pH 7.0, 1.5 × 10^-5 M) was 78%. For the same molecule, the “% Killing of 5 × 10^6 Bacteria” value (E. coli B; E. coli B, pH 5.6, 1.5 × 10^-5 M, listed as C#90-99) was 98%, the “% Killing of 5 × 10^6 Bacteria” value (E. coli B; E. coli, pH 7.0, 1.5 × 10^-5 M) was 90% and the “% Killing of 5 × 10^6 Bacteria” value ([2]; 502A, 3e-5 M, pH 7) was 95%. The “Percent Viability DMEM” value (Human lung fibroblasts; DMEM plus 10% FCS) was 98.4% and the “Percent Viability PBS” value (Human lung fibroblasts; PBS, pH 7.4) was 94.7%.

In the case of cefysenhhnp(g) [Peptide 3], the “% Killing of 5 × 10^6 Bacteria” value ([1]; P. aeruginosa, pH 5.6, 1.2 × 10^-4 M) is reported as 0%, the “% Killing of 5 × 10^6 Bacteria” value ([1]; P. aeruginosa, pH 7.0, 1.2 × 10^-4 M) is reported as 0% and the “Effective Dose Bactericidal pH 5.6 P. aeruginosa Molar Concentration” value ([1]; Table 5, pH 5.6) is reported as “-- (not active at concentrations of 1.2 × 10^-4 M or less)”. For the same molecule, the “% Killing of 5 × 10^6 Bacteria” value (P. cepacia ATCC 25608; pH 5.6, 1.2 × 10^-4 M) was 0%, the “% Killing of 5 × 10^6 Bacteria” value (P. cepacia ATCC 25608; pH 7.0, 1.2 × 10^-4 M) was 0% and the “% Killing of 5 × 10^6 Bacteria” value (E. coli B; E. coli, pH 5.6, 1.2 × 10^-4 M) was 0%. For the same molecule, the “% Killing of 5 × 10^6 Bacteria” value (E. coli B; E. coli, pH 7.0, 1.2 × 10^-4 M) was 0%, the “% Killing of 5 × 10^6 Bacteria” value ([2]; S. aureus, pH 7.0, 1.2 × 10^-4 M) was 0% and the “peptide concentration which neutralized endotoxin (100% inhibition of LPS-induced gelation)” value (E. coli 055: B5 LPS) was 120 µM. The “Effective Dose (μg/0.2 ml)” value (E. coli 055: B5 LPS) was 34 μg/0.2 ml, the “Effective Dose M (× 10^-4)” value (E. coli 055: B5 LPS) was 1.2 M (× 10^-4) and the “Effective Dose Endotoxin Neutralization (Molar Concentration)” value (E. coli 055: B5 LPS; Table 8, LAL) was 120 µM.

B1: B/PI: 55 kD bactericidal/permeability increasing protein purified from human neutrophil granules (protein)
chain: MRENMARGPCNAPRWVSLMVLVAIGTAVTAAVNPGVVVRISQKGLDYASQQGTAALQKELKRIKIPDYSDSFKIKHLGKGHYSFYSMDIREFQLPSSQISMVPNVGLKFSISNANIKISGKWKAQKRFLKMSGNFDLSIEGMSISADLKLGSNPTSGKPTITCSSCSSHINSVHVHISKSKVGWLIQLFHKKIESALRNKMNSQVCEKVTNSVSSKLQPYFQTLPVMTKIDSVAGINYGLVAPPATTAETLDVQMKGEFYSENHHNPPPFAPPVMEFPAAHDRMVYLGLSDYFFNTAGLVYQEAGVLKMTLRDDMIPKESKFRLTTKFFGTFLPEVAKKFPNMKIQIHVSASTPPHLSVQPTGLTFYPAVDVQAFAVLPNSSLASLFLIGMHTTGSMEVSAESNRLVGELRLDRLLLQLKHSNIGPFPVELLQDIMNYIVPILVLPRVNEKLQKGFPLPTPARVQLYNVVLQPHQNFLLFGADVVYK
For B1, the “LD50 for P. aeruginosa” value ([1]; 5×10^6 CFU, pH 5.6, dose response, linear regression) was 3.4 nM, the “% Killing of 5 × 10^6 Bacteria” value ([1]; P. aeruginosa, pH 5.6, 4.1 × 10^-9 M) was 50 ± 5% and the “% Killing of 5 × 10^6 Bacteria” value ([1]; P. aeruginosa, pH 5.6, 5.5 × 10^-9 M) was 87 ± 8%. For the same molecule, the “% Killing of 5 × 10^6 Bacteria” value ([1]; P. aeruginosa, pH 7.0, 4.1 × 10^-9 M) was 35 ± 3%, the “% Killing of 5 × 10^6 Bacteria” value (P. cepacia ATCC 25608; pH 5.6, 4.1 × 10^-9 M) was 0% and the “% Killing of 5 × 10^6 Bacteria” value (P. cepacia ATCC 25608; pH 7.0, 4.1 × 10^-9 M) was 0%. The “killing of P. cepacia (in words)” value (P. cepacia ATCC 25608; concentration 20fold higher: 9.1×10^-8 M, approximately 5 μg protein/ml) was “not killed; also recorded: resisted bactericidal activity”, the “% Killing of 5 × 10^6 Bacteria” value (E. coli B; E. coli B, pH 5.6, 5.5 × 10^-9 M) was 71% and the “% Killing of 5 × 10^6 Bacteria” value (E. coli B; E. coli, pH 5.6, 4.1 × 10^-9 M) was 35 ± 4%. The “% Killing of 5 × 10^6 Bacteria” value (E. coli B; E. coli, pH 7.0, 4.1 × 10^-9 M) was 25 ± 5%, the “% Killing of 5 × 10^6 Bacteria” value ([2]; S. aureus, pH 7.0, 4.1 × 10^-9 M) was 0% and the “peptide concentration which neutralized endotoxin (100% inhibition of LPS-induced gelation)” value (E. coli 055: B5 LPS) was “about 10^-8 M”. For the same molecule, the “Effective Dose (μg/0.2 ml)” value (E. coli 055: B5 LPS) was 0.165 μg/0.2 ml, the “Effective Dose M (× 10^-4)” value (E. coli 055: B5 LPS) was 0.00015 M (× 10^-4) and the “stability of bactericidal activity on storage” value [3] was “stable”.
